Data on 2 molecules can be found in patent US4758312A, “Method for in situ corrosion detection using electrochemically active compounds” (Nalco Chemical Company, priority 1987, dated 1988).

The nature of series [1]: Commercial tetrazolium compounds, detection of iron corrosion (Example 4). As to conditions: 0.1 percent solution, one percent sodium chloride.
The nature of series [2]: Corrosion detection under typical cooling water conditions in recirculation tank (Example 7). To be noted: continuous 4 ppm feed from day 4, Inhibitor A.
Series [3] is described as follows: Water solubility of reduced form (formazan). It is filed as physicochemical. To be noted: formazan of the synthesized tetrazolium compound. From the text: Because the reduced forms of the commercially available tetrazolium salts tested in Example 4 are insoluble, they would present a measurement problem when used in an actual corrosion detection test. The reduced form (the formazan) would precipitate at the corrosion site and be difficult to detect quantitatively in the water sample taken far from the corrosion site. Introduction of a functional group to give water solubility to the reduced form was done to eliminate this problem. Examples of such functional groups are carboxy (COOH), hydroxy (OH), sulfonic (OSO3 H), amino (NH2), etc. These could be introduced on any of the three "R" groups in the generalized tetrazolium structure given below by choosing the appropriate organic compound to be used in the synthesis. [drawing 4]

Regarding `c1ccc(-c2nn(-c3ccccc3)[n+](-c3ccc(-c4ccc(-[n+]5nc(-c6ccccc6)nn5-c5ccccc5)cc4)cc3)n2)cc1` [Compound 8 (Table 6), 2,2',5,5'-tetraphenyl-3,3'(p-diphenylene)ditetrazolium chloride], the “Time to Color” value in series [1] came out at 35 min.
Consider `O=C(O)c1ccc(-n2nc(-c3ccccc3)n[n+]2-c2ccccc2)cc1` [tetrazolium compound, 2-(p-carboxyphenyl)-3,5-diphenyltetrazolium bromide], for which the “Formazan level, stabilized” value in series [2] is on record as 2-3 ppb. In series [3], the “Water solubility of formazan formed” value is reported as “water soluble”.
